These results are taken from patent publication US12168643B2, “Compounds for the treatment of neuromuscular disorders” (NMD PHARMA A/S, priority 2019, dated 2024).

The EC50 is the midpoint of the concentration-response curve.

Experiment [1] concerns isolated rat soleus muscles. As to the kind of experiment: Recovery of nerve-stimulated contractile force in isolated rat soleus nerve-muscle preparations exposed to tubocurarine. In kind it is cell-based. Conditions: 50 μM compound, 40 mins exposure, after 90 mins 115 nM tubocurarine. The method, then: FIG. 2. […] Force traces from a representative muscle stimulated to contract in 1) control condition before addition of neuromuscular blocking agent, 2) the force response to stimulation after 90 minutes incubation with Tubocurarine. […] The traces presented in panel A (1, 2, 3), correspond to the dotted lines in panel B, respectively.
Recovery of force is quantified as the percentage of the force prior to tubocurarine that is recovered by the compound.
The current disclosure relates to compounds that inhibit CIC-1 ion channels and increase muscle excitability and thereby improve muscle function in clinical conditions where muscle activation is failing. Such conditions result in loss of contractile function of skeletal muscle, weakness and excessive fatigue. In this series of experiments the compounds were tested for their ability to restore contractile function of isolated rat muscle when the neuromuscular transmission had been compromised akin to neuromuscular disorders.
Experimentally, soleus muscles from 4-5 week old rats were isolated with the motor nerve remaining attached. The nerve-muscle preparations were mounted in experimental setups that enabled electrical stimulation of the motor nerve. Stimulation of the motor nerve led to activation of the muscle fibres and ensuing force production that was recorded.
After mounting the nerve-muscle preparation in the experimental setup, the contractile function of the muscle was initially assessed under the control conditions (FIG. 2A). […] The experimental condition mimics the failing neuromuscular transmission in a range of neuromuscular disorders. After addition of tubocurarine the contractile force declined over the next 90 mins to 10-50% of the control force. 50 μM of the test compound was then added and the contractile force recovered despite the continued presence of tubocurarine. To quantify the ability of the compound to restore force the percentage of the initial force that was restored was determined after 40 mins of compound exposure (FIG. 2B) and the point increase is reported in Table 3.

In another experiment the target is T1, CIC-1 ion channel (Rattus norvegicus, UniProt P35524).
T1 construct: from tissue; host or cells: whole soleus muscle of 12-14 week old Wistar rats
T1 sequence (P35524 1-994): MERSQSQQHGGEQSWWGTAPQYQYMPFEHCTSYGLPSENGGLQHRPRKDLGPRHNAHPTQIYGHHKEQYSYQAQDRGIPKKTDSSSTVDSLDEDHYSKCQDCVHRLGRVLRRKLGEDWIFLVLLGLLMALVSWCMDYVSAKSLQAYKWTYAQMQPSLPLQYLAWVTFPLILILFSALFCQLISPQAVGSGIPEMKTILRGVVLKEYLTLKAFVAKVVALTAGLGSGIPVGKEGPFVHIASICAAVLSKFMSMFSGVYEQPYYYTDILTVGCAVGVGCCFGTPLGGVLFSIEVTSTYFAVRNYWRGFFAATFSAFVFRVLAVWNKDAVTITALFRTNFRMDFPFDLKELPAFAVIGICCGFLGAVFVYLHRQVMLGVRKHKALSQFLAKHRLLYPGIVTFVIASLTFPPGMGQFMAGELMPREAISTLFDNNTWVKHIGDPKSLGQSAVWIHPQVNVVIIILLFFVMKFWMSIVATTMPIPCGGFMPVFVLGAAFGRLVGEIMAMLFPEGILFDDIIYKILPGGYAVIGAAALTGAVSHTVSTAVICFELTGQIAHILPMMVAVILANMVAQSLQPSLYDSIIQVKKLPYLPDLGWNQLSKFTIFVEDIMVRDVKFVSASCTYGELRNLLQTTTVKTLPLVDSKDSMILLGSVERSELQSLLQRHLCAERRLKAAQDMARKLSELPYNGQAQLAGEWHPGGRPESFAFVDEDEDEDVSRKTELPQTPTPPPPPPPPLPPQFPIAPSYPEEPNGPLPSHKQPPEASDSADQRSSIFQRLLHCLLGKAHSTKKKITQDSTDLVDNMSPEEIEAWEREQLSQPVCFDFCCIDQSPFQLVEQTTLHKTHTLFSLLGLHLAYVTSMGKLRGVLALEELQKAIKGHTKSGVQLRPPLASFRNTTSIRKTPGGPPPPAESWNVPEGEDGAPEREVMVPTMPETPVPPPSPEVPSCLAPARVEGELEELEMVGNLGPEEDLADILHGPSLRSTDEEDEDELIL
Kind of experiment: Electrophysiological measurement (three micro-electrode Gm) of compound inhibition of CIC-1 in rat soleus muscle fibres. In kind it is cell-based. The conditions noted are these: whole rat soleus muscle, approx. 30° C., four increasing concentrations; mean ± spread, n = experiments; read-out: EC50 (inhibition of CIC-1 ion channel, reduction of Gm).

The subject of a further experiment is hindlimb muscle force. Kind of experiment: In situ isometric hindlimb force in anaesthetised rats with neuromuscular transmission partially inhibited by Cisatracurium. In kind it is in vivo. Conditions: 47.2 mg/kg i.v., 80 Hz stimulation, Cisatracurium infusion, female Lewis rats. The method, then:
Isometric hindlimb force was measured in 12-week old female Lewis rats in the presence and absence of compound.
Rats were placed under anesthesia with isoflurane (2-4%), intubated and subsequently connected to a micro ventilator (Microvent 1, Hallowell EMC, US). Two stimulation electrodes were inserted through the skin to stimulate the sciatic nerve. A small incision was made proximal to the ankle, to expose the Achilles tendon, which was tied by cotton string, and connected to a force transducer (Fort250, World Precision Instruments) with adjustable position (Vernier control). The Achilles tendon was then cut distal to the attached cotton string. […]
Muscle contractile properties were assessed by applying an electrical current (under supramaximal voltage conditions) to the nerve and recording the force generated by the muscle. The muscle was stretched until maximal force was obtained, when assessed by 2 Hz stimulation. Isometric force was measured every 30 seconds at 12 Hz (Twitch), 10 pulses, and at every 5 minutes at 80 Hz (Tetanic) for 1 second (80 pulses). […] The effect of test article was assessed on its ability to increase force generated from the stimulation pattern applied. The effect was assessed in the ability to increase force per se (tetanic, 80 Hz, stimulation), and the ratio between individual twitch peaks (12 Hz stimulation). […]

Marks after values point to notes of the source that are not given here.

With `COC[C@@H](Oc1ccc(Br)cc1C1CC1)C(=O)O` (single isomer, unassigned) [(2R)-A-1], in experiment [1], the “Point increase (%) of initial force that was restored” value (“Point increase (%)” for short) was 0.2%.

As for `COC[C@H](Oc1ccc(Br)cc1C1CCC1)C(=O)O` [Compound A-6, (2S)-2-(4-bromo-2-cyclobutylphenoxy)-3-methoxypropanoic acid], the concentration giving a half-maximal response (EC50) at CIC-1 ion channel was found to be 3.2 ± 2.1 µM. Further, in experiment [1], the “Point increase (%)” value stood at 35.6 ± 8.3%.

As for `COC[C@H](Oc1cc(F)c(Br)cc1C1CC1)C(=O)O` [Compound A-2, (2S)-2-(4-bromo-2-cyclopropyl-5-fluorophenoxy)-3-methoxypropanoic acid], the “Point increase (%)” value in experiment [1] amounted to 22.3 ± 3.8%.

With `COC[C@@H](Oc1ccc(Br)cc1C1CCC1)C(=O)[O-].[Na+]` [(2R)-A-6, Sodium (R)-2-(4-bromo-2-cyclobutylphenoxy)-3-methoxypropanoate], the “Point increase (%)” value in experiment [1] is −4.1 ± 1.4%.

`COC[C@H](Oc1ccc(Br)cc1C1CC1)C(=O)O` [Compound A-1, (2S)-2-(4-Bromo-2-cyclopropylphenoxy)-3-methoxypropanoic acid]: the concentration for a half-maximal effect (EC50) at CIC-1 ion channel came to 3.7 ± 0.2 µM. For the same compound, in experiment [1], the “Point increase (%)” value was 36.3* %. For the same compound, in the experiment with hindlimb muscle force, the “increase in tetanic force” value is listed as 85%.
